Measured values as given in ChEMBL document CHEMBL1201862, “PubChem BioAssay data set” (2004).
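96-well plates; 48 h exposure; 5 concentrations. Endpoints by linear interpolation between flanking doses. Not reached: highest tested concentration assigned. The concentration for 50% growth inhibition is given as GI50.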 The source made the active and inactive calls. Rule as the data show it: active = GI50 up to about 1.1 µM and inactive = higher.

Key:
Assay in all cases: DTP human tumour cell line panel, 48 h
786-0 = tested on: 786-0
A549 = tested on: A549
DLD-1 = tested on: DLD-1
HCC 2998 = tested on: HCC 2998
HT-29 = tested on: HT-29
IGROV-1 = tested on: IGROV-1
KM12 = tested on: KM12
MOLT-4 = tested on: MOLT-4
Malme-3M = tested on: Malme-3M
NCI-H23 = tested on: NCI-H23
NCI-H460 = tested on: NCI-H460
SF-268 = tested on: SF-268
SK-MEL-2 = tested on: SK-MEL-2
TK-10 = tested on: TK-10
NCI-H522 = tested on: NCI-H522
OVCAR-3 = tested on: OVCAR-3
Hs-578T = tested on: Hs-578T
MDA-MB-231 = tested on: MDA-MB-231
MDA-MB-435 = tested on: MDA-MB-435
T47D = tested on: T47D

| Compound | GI50 (786-0) | GI50 (A549) | GI50 (DLD-1) | GI50 (HCC 2998) | GI50 (HT-29) | GI50 (IGROV-1) | GI50 (KM12) | GI50 (MOLT-4) | GI50 (Malme-3M) | GI50 (NCI-H23) | GI50 (NCI-H460) | GI50 (SF-268) | GI50 (SK-MEL-2) | GI50 (TK-10) | GI50 (NCI-H522) | GI50 (OVCAR-3) | GI50 (Hs-578T) | GI50 (MDA-MB-231) | GI50 (MDA-MB-435) | GI50 (T47D) |
| --- | --- | --- | --- | --- | --- | --- | --- | --- | --- | --- | --- | --- | --- | --- | --- | --- | --- | --- | --- | --- |
| CCOC(=O)NC(=O)c1cn(CCN2CCN(C(=O)CCCCCCCCCCNc3ncnc4c3ncn4C3OC(CO)C(O)C3O)CC2)c(=O)[nH]c1=O (stereo unspecified) | > 100 µM (inactive) | > 100 µM (inactive) | > 100 µM (inactive) | > 100 µM (inactive) | > 100 µM (inactive) | > 100 µM (inactive) | > 100 µM (inactive) | > 100 µM (inactive) | > 100 µM (inactive) | > 100 µM (inactive) | > 100 µM (inactive) | > 100 µM (inactive) | > 100 µM (inactive) | > 100 µM (inactive) | – | – | – | – | – | – |
| CC(=O)NNc1nc(C)c(C(/C=C/c2ccc(Cl)cc2)=N/NC(=S)NN)s1 | > 100 µM (inactive) | > 100 µM (inactive) | > 100 µM (inactive) | – | > 100 µM (inactive) | > 100 µM (inactive) | > 100 µM (inactive) | > 100 µM (inactive) | > 100 µM (inactive) | > 100 µM (inactive) | > 100 µM (inactive) | > 100 µM (inactive) | > 100 µM (inactive) | > 100 µM (inactive) | > 100 µM (inactive) | – | – | – | – | – |
| CC(Oc1ccc(OCC2CCCCC2)cc1)C(=O)NCCO (stereo unspecified) | > 100 µM (inactive) | > 100 µM (inactive) | > 100 µM (inactive) | – | 99.3 µM (inactive) | > 100 µM (inactive) | > 100 µM (inactive) | > 100 µM (inactive) | > 100 µM (inactive) | 15.7 µM (inactive) | 52.1 µM (inactive) | > 100 µM (inactive) | > 100 µM (inactive) | > 100 µM (inactive) | 87.1 µM (inactive) | 64.9 µM (inactive) | – | – | – | – |
| COC(=O)c1cc(C)c(C)c2c1NC(=O)CNC2=O | > 100 µM (inactive) | > 100 µM (inactive) | > 100 µM (inactive) | > 100 µM (inactive) | > 100 µM (inactive) | > 100 µM (inactive) | > 100 µM (inactive) | > 100 µM (inactive) | – | > 100 µM (inactive) | > 100 µM (inactive) | – | > 100 µM (inactive) | – | – | > 100 µM (inactive) | – | – | – | – |
| O=c1c2cccc3cccc(c4n1CCCN=4)c32 | > 100 µM (inactive) | > 100 µM (inactive) | > 100 µM (inactive) | – | > 100 µM (inactive) | > 100 µM (inactive) | > 100 µM (inactive) | 35.7 µM (inactive) | > 100 µM (inactive) | > 100 µM (inactive) | > 100 µM (inactive) | > 100 µM (inactive) | > 100 µM (inactive) | 47.5 µM (inactive) | > 100 µM (inactive) | > 100 µM (inactive) | – | – | – | – |
| COc1ccc([C@@H]2CC(=O)N2)cc1 | > 100 µM (inactive) | > 100 µM (inactive) | > 100 µM (inactive) | – | > 100 µM (inactive) | > 100 µM (inactive) | > 100 µM (inactive) | > 100 µM (inactive) | > 100 µM (inactive) | > 100 µM (inactive) | > 100 µM (inactive) | > 100 µM (inactive) | > 100 µM (inactive) | > 100 µM (inactive) | > 100 µM (inactive) | – | – | – | – | – |
| CC(=O)C1=CSC2[C@H](NC(=O)Cc3ccccc3)C(=O)N2C1C(=O)OC(c1ccccc1)c1ccccc1 (stereo partly specified) | 60.5 µM (inactive) | 91.8 µM (inactive) | > 100 µM (inactive) | > 100 µM (inactive) | > 100 µM (inactive) | > 100 µM (inactive) | > 100 µM (inactive) | 35.8 µM (inactive) | > 100 µM (inactive) | 51.6 µM (inactive) | – | 47.6 µM (inactive) | > 100 µM (inactive) | > 100 µM (inactive) | > 100 µM (inactive) | > 100 µM (inactive) | – | – | – | – |
| Cn1c2c(c3ccccc31)CCN(CCCN1CCN(c3cccc(Cl)c3)CC1)C2=O | 17.1 µM (inactive) | 49.3 µM (inactive) | 23 µM (inactive) | – | 12.5 µM (inactive) | 26.4 µM (inactive) | – | 11.6 µM (inactive) | – | 19.5 µM (inactive) | 5.81 µM (inactive) | 15.6 µM (inactive) | – | 27.8 µM (inactive) | 18.8 µM (inactive) | – | – | – | – | – |
| CC(C)C(Sc1nc(-c2ccccc2)c(-c2ccccc2)[nH]1)C(=O)NN (stereo unspecified) | > 100 µM (inactive) | > 100 µM (inactive) | > 100 µM (inactive) | – | > 100 µM (inactive) | > 100 µM (inactive) | > 100 µM (inactive) | 49.7 µM (inactive) | > 100 µM (inactive) | > 100 µM (inactive) | 97.5 µM (inactive) | > 100 µM (inactive) | > 100 µM (inactive) | 92.5 µM (inactive) | 74.8 µM (inactive) | 98.4 µM (inactive) | – | – | – | – |
| CCN(CC)CCNC(=O)c1cccc2nc3ccccc3nc12 | 27 µM (inactive) | 8.05 µM (inactive) | > 26.7 µM (inactive) | 14.2 µM (inactive) | 4.55 µM (inactive) | 38.3 µM (inactive) | 10.3 µM (inactive) | 4.91 µM (inactive) | 11.4 µM (inactive) | 13.7 µM (inactive) | – | 0.318 µM (active) | 13.3 µM (inactive) | 27.2 µM (inactive) | 28.5 µM (inactive) | 8.34 µM (inactive) | – | – | – | – |
| OCCCCn1cnc2c(O)ncnc21 | > 100 µM (inactive) | > 100 µM (inactive) | > 100 µM (inactive) | > 100 µM (inactive) | > 100 µM (inactive) | > 100 µM (inactive) | > 100 µM (inactive) | > 100 µM (inactive) | > 100 µM (inactive) | > 100 µM (inactive) | > 100 µM (inactive) | > 100 µM (inactive) | – | > 100 µM (inactive) | – | > 100 µM (inactive) | – | – | – | – |
| O=C(CCc1n[nH]c(=S)o1)Nc1ccccc1C(F)(F)F | > 100 µM (inactive) | – | > 100 µM (inactive) | > 100 µM (inactive) | > 100 µM (inactive) | > 100 µM (inactive) | > 100 µM (inactive) | > 100 µM (inactive) | > 100 µM (inactive) | > 100 µM (inactive) | > 100 µM (inactive) | > 100 µM (inactive) | – | > 100 µM (inactive) | > 100 µM (inactive) | > 100 µM (inactive) | – | – | – | – |
| Cc1[nH]nc2c1C(=O)C=C(N(CCO)c1ccccc1)C2=O | > 100 µM (inactive) | > 100 µM (inactive) | > 100 µM (inactive) | > 100 µM (inactive) | > 100 µM (inactive) | > 100 µM (inactive) | > 100 µM (inactive) | > 100 µM (inactive) | > 100 µM (inactive) | > 100 µM (inactive) | – | – | – | > 100 µM (inactive) | > 100 µM (inactive) | > 100 µM (inactive) | – | – | – | – |
| COc1cc(C(=O)O)cc2c1[nH]c1ccccc12 [MUKOEIC ACID] | > 25 µM (inactive) | > 25 µM (inactive) | > 25 µM (inactive) | > 25 µM (inactive) | > 25 µM (inactive) | > 25 µM (inactive) | > 25 µM (inactive) | > 25 µM (inactive) | > 25 µM (inactive) | – | > 25 µM (inactive) | > 25 µM (inactive) | > 25 µM (inactive) | > 25 µM (inactive) | > 25 µM (inactive) | > 25 µM (inactive) | – | – | – | – |
| O=C(O)c1cc2c(cc1CC(Cc1ccccc1)C(=O)O)CCC2 (stereo unspecified) | > 100 µM (inactive) | > 100 µM (inactive) | – | > 100 µM (inactive) | > 100 µM (inactive) | > 100 µM (inactive) | > 100 µM (inactive) | > 100 µM (inactive) | > 100 µM (inactive) | > 100 µM (inactive) | > 100 µM (inactive) | > 100 µM (inactive) | > 100 µM (inactive) | > 100 µM (inactive) | > 100 µM (inactive) | > 100 µM (inactive) | > 100 µM (inactive) | > 100 µM (inactive) | > 100 µM (inactive) | > 100 µM (inactive) |
| ClCc1nc2ccccc2[nH]1 | > 100 µM (inactive) | > 100 µM (inactive) | – | > 100 µM (inactive) | > 100 µM (inactive) | > 100 µM (inactive) | > 100 µM (inactive) | 54 µM (inactive) | 34.5 µM (inactive) | > 100 µM (inactive) | > 100 µM (inactive) | > 100 µM (inactive) | > 100 µM (inactive) | > 100 µM (inactive) | > 100 µM (inactive) | > 100 µM (inactive) | > 100 µM (inactive) | > 100 µM (inactive) | > 100 µM (inactive) | > 100 µM (inactive) |
| C=CCCc1cc(OC)ccc1CN(C)C(C)(C)CO | > 100 µM (inactive) | > 100 µM (inactive) | > 100 µM (inactive) | – | > 100 µM (inactive) | > 100 µM (inactive) | > 100 µM (inactive) | – | > 100 µM (inactive) | > 100 µM (inactive) | > 100 µM (inactive) | > 100 µM (inactive) | > 100 µM (inactive) | > 100 µM (inactive) | – | > 100 µM (inactive) | – | – | – | – |
| CN(CCNC(=O)c1cc(-c2ccccc2)nc2ccccc12)CCNC(=O)c1cc(-c2ccccc2)nc2ccccc12 | 5.96 µM (inactive) | > 100 µM (inactive) | – | 2.43 µM (inactive) | 2.14 µM (inactive) | 3.6 µM (inactive) | 4.46 µM (inactive) | 4.17 µM (inactive) | 2.12 µM (inactive) | > 45.4 µM (inactive) | 8.87 µM (inactive) | 8.51 µM (inactive) | 4.41 µM (inactive) | > 100 µM (inactive) | 14.3 µM (inactive) | 23 µM (inactive) | 6.18 µM (inactive) | > 50.4 µM (inactive) | 6.92 µM (inactive) | > 30.5 µM (inactive) |
